Experimental findings from the METLIN SMRT retention time set (Domingo-Almenara et al. 2019) are described below.

This data set is described as follows: gradient 5% acetonitrile 3 min, to 50% in 2 min, to 85% in 15 min, held 3 min, 100 µL/min. To be noted: column: Zorbax Extend-C18 2.1 x 50 mm; eluents: water / acetonitrile, 0.1% formic acid. In short, it runs like this: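 The mobile phases were water and acetonitrile, each with 0.1% formic acid, pumped at 100 μL/min through a Zorbax Extend-C18 column (2.1 × 50 mm, 1.8 μm). Pure standards were injected as mixtures of ~100 molecules and detected by a quadrupole time-of-flight mass spectrometer in positive and negative ionization mode. Retention time came from computationally picked adduct peaks, each inspected by hand.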
`CCOC(=O)C1=Cc2ccc(C(F)(F)C(F)(F)F)cc2N=C(N)C1` gave an RP-LC retention time of 794 s.

In turn, `CCOC(=O)N1CCC(NC(=O)C2(c3ccc(F)cc3)CC2)CC1` came in with an RP-LC retention time of 796 s.

As to `Cc1cc(NCCOCCO)n2nc(-c3ccc(Cl)cc3)c(C)c2n1`, the RP-LC retention time came out at 644 s.

In turn, `O=C(C1CCCC1)N1CCCC(c2nn[nH]n2)C1` (centres undefined) registered an RP-LC retention time of 636 s.

As for `Cc1cc(N2CCN(S(=O)(=O)c3ccc(F)c(F)c3)CC2)nc(N2CCOCC2)n1`, the RP-LC retention time came out at 664 s.

Turning to `O=C(CN1CCCc2nc(C3CC3)ncc2C1=O)NCc1ccco1`, the RP-LC retention time stood at 663 s.

The compound `C=CCNC(=O)NC1CCN(C2=NS(=O)(=O)C(c3ccccc3)=C2C)CC1` displayed an RP-LC retention time of 705 s.

`COc1cc(NC(=O)NC2CCN(c3cc(N4CCOCC4)cnn3)C2)cc(OC)c1` (centres undefined): the RP-LC retention time came out at 629 s.

`C=CCN1C[C@@H](C)N([C@H](c2ccc(C(=O)N(CC)CC)cc2)c2cccc(OC)c2)C[C@@H]1C`: the RP-LC retention time came out at 770 s.

For the compound `Cc1cnc(C2CCN(S(=O)(=O)c3ccccc3)C2)n1C(C)C` (centres undefined), the RP-LC retention time worked out at 564 s.

Take `CCC(=O)N1CCc2cc(C(=O)NCC3CCCO3)ccc21` (centres undefined): the RP-LC retention time is 642 s.

In turn, `CC(C)Cc1noc(C2(F)CCN(S(=O)(=O)c3ccc(F)cc3F)CC2)n1` came in with an RP-LC retention time of 1150 s.

`CN(C)C(=O)c1cc2c(s1)CCC(C(=O)NC1CCCC1)C2` (centres undefined) registered an RP-LC retention time of 696 s.

In turn, `CCCCN(CC)S(=O)(=O)c1ccc(C(=O)Nc2nc3c(s2)COc2ccccc2-3)cc1` registered an RP-LC retention time of 1230 s.

The compound `CCC(C)NC(=O)c1cn(-c2ccc(-c3nc(C4CC4)no3)cn2)cn1` (centres undefined) registered an RP-LC retention time of 883 s.

For the compound `CCS(=O)(=O)Nc1cc(-c2nnc(C(C)C)o2)sc1C`, the RP-LC retention time worked out at 863 s.

The compound `Cc1ccc2oc(-c3noc(C(=O)NCCCN4CCCC4)n3)c(C)c2c1` displayed an RP-LC retention time of 717 s.

`COc1ccccc1CNC1=NCCNC12CCN(S(=O)(=O)c1ccc(F)cc1)CC2` had an RP-LC retention time of 704 s.

In turn, `COc1cc(Cn2nc(C)c3cnn(C(C)(C)C)c3c2=O)cc(OC)c1` came in with an RP-LC retention time of 1070 s.

The compound `CC(C)N1CCn2cc(S(=O)(=O)Nc3ccc(Cl)cc3F)cc2C1=O` registered an RP-LC retention time of 812 s.

Compound `Cc1sc(C)c(S(=O)(=O)Nc2ccc(F)cc2)c1-c1cc(C(F)(F)F)on1` showed an RP-LC retention time of 1140 s.

Compound `CCn1nccc1-c1cccc(-c2noc(C3CCN(S(=O)(=O)c4ccc(Cl)cc4)CC3)n2)c1` showed an RP-LC retention time of 932 s.

In turn, `O=C(Nc1ccc(F)cc1)N1CCC(N2CCN(Cc3ccccc3)C2=O)CC1` returned an RP-LC retention time of 794 s.

In turn, `O=C(NCCN1CCN(Cc2ccccc2)CC1)c1cc(=O)n2c(nc3ccccc32)s1` came in with an RP-LC retention time of 649 s.

Turning to `Cc1nc(-c2noc(-c3cccc(F)c3)n2)cn1CC(=O)Nc1cccc(Cl)c1`, the RP-LC retention time was 957 s.

Regarding `Cc1nccn1-c1cc(N2CCCCC2)nc2ccnn12`, the RP-LC retention time was 594 s.

As to `CCSc1nnc(NC(=O)Cn2nc(-c3ccncc3)ccc2=O)s1`, the RP-LC retention time stood at 561 s.

`CCN1CCN(c2c(C(=O)c3ccccc3)cnc3cc4c(cc23)OCO4)CC1` yielded an RP-LC retention time of 563 s.

`CCCCC(=O)N1CCc2c(c(C(=O)NCc3ccc4c(c3)OCO4)nn2C)C1` came in with an RP-LC retention time of 767 s.

As to `COc1cccc(-c2nc3cnccn3c2NCCC(=O)Nc2ccc3c(c2)OCCO3)c1`, the RP-LC retention time came to 672 s.

On to `N#Cc1cccc(S(=O)(=O)NC2CCc3nn(CC4CC4)c(=O)n3CC2)c1` (centres undefined), for which the RP-LC retention time was found to be 706 s.

Regarding `Cc1ccccc1-n1c(=O)c2sccc2n(Cc2nc(-c3ccc(Cl)cc3)no2)c1=O`, the RP-LC retention time was 1090 s.

Turning to `CCN(CCCNC(=O)C1CCCN(c2ncnc3c2nc2n3CCCCC2)C1)c1cccc(C)c1` (centres undefined), the RP-LC retention time is 647 s.

As to `Cc1nnc(N2CCCC(C(=O)NCCc3cccs3)C2)c2nn(-c3ccc(Cl)cc3)c(C)c12` (centres undefined), the RP-LC retention time was 762 s.

Compound `Cc1cnc(CCNC(=O)NCC(C)C)n1C1CCCCCC1` gave an RP-LC retention time of 588 s.

In turn, `CCN1CCCn2cc(S(=O)(=O)Nc3cc(OC)cc(OC)c3)cc2C1=O` gave an RP-LC retention time of 704 s.

Take `Cc1ccc(-c2ncc(NC(=O)c3ccc(Br)o3)cn2)cc1`: the RP-LC retention time came to 1030 s.

Take `O=C(Nc1ccc2c(c1)CCCN2S(=O)(=O)c1ccccc1)c1c(F)cccc1Cl`: the RP-LC retention time came to 1080 s.

Regarding `CCN(C(=O)Cc1csc2nc(-c3ccccc3)cn12)c1ccccc1`, the RP-LC retention time turned out to be 852 s.

`COc1cc(Cl)ccc1C(=O)N1CCN(c2nc3ccncc3n(C)c2=O)CC1`: the RP-LC retention time worked out at 638 s.

In turn, `CCC(C)C(NC(=O)c1cccc(C)c1)C(=O)Nc1nc2ccccc2[nH]1` (centres undefined) came in with an RP-LC retention time of 765 s.

`Cc1ccc(C2=NC3(CCN(C(=O)c4ccco4)CC3)ON2)cc1` returned an RP-LC retention time of 747 s.

In turn, `O=C(NCc1nc(-c2ccc(-c3csc(-c4ccccc4)n3)cc2)no1)c1ccco1` returned an RP-LC retention time of 1090 s.

As to `CSc1ccc(CNC(=O)CN2CCc3[nH]c4c(C)c(C)ccc4c(=O)c3C2)cc1`, the RP-LC retention time worked out at 638 s.

`COc1cc(C)c(C(C)C)cc1S(=O)(=O)NCc1ccco1` displayed an RP-LC retention time of 594 s.

With `Cc1ccc(Oc2ccc(NS(=O)(=O)c3cccs3)cc2)nn1`, the RP-LC retention time was determined as 687 s.

Regarding `COCCCNC(=O)C1(C)Cn2nc(-c3ccccc3)cc2C(=O)N1c1ccc(F)cc1` (centres undefined), the RP-LC retention time amounted to 806 s.

In turn, `CCc1ccccc1N1C(=O)CN(S(=O)(=O)CC)CC1(C)C(=O)NC1CCCCCC1` (centres undefined) yielded an RP-LC retention time of 957 s.

`CCC(CC)N1CCC(F)(c2nc(-c3ccccc3)no2)CC1` showed an RP-LC retention time of 704 s.

In turn, `CCOC(=O)c1csc(NC(=O)C2CCCN(c3cc(-n4cccn4)ncn3)C2)n1` (centres undefined) had an RP-LC retention time of 796 s.

The compound `CCc1nc(OCC(=O)Nc2cccc(Br)c2)c2ccccc2n1` showed an RP-LC retention time of 889 s.

As to `COc1ccc(S(=O)(=O)NCc2cccnc2-c2cccc(C)c2)cc1Cl`, the RP-LC retention time came to 756 s.

`COC(=O)c1ccc(OC)c(Cn2cnc3c(-c4ccccc4)csc3c2=O)c1`: the RP-LC retention time amounted to 988 s.

As for `COc1ccc(-c2nc(C)cc(C)c2CNS(=O)(=O)c2ccccc2F)cc1`, the RP-LC retention time was 650 s.

In turn, `CC(NC(=O)c1cc2n(n1)CC(C)(C(=O)NC1CCCCC1)N(C)C2=O)c1ccccc1` (centres undefined) returned an RP-LC retention time of 800 s.

On to `COc1ccc(-c2nc(CN3C(=O)C(O)(c4cccc(F)c4)c4ccccc43)c(C)o2)cc1` (centres undefined), for which the RP-LC retention time came out at 1040 s.

Compound `Cc1cccc(-c2nnc(-c3nc(NC4CCS(=O)(=O)C4)c4ccccc4n3)o2)c1` (centres undefined) registered an RP-LC retention time of 821 s.

`O=C(c1ccc(OCC2CCCN(C(=O)c3ccoc3)C2)cc1)N1CCOCC1` (centres undefined) displayed an RP-LC retention time of 690 s.

Turning to `COCCn1nc(C(=O)N(C)CCCc2c(C)nn(C)c2C)c2c1CCNC2`, the RP-LC retention time is 572 s.
